The results in this text go back to US3985758A, “1,4-Dihydropyridine derivatives” (Yamanouchi Pharmaceutical Co., Ltd., priority 1973, dated 1976).

One series in a line: in vivo. Conditions: mouse, in vivo, iv. On the procedure:
LD50 was determined by using mice.
2. Acute toxicity in mice
Male ICR weighing 25 to 32 g were used. The test compounds were injected into tail vein and LD 50 values were determined.

Series [1] in a line: Solubility in water at 25° C. Type of series: physicochemical.
Series [2] deals with vertebral and femoral blood flow. As to the kind of experiment: Vertebral and femoral blood flow in anesthetized dogs. Conditions: 0.01 mg/kg i.v. (0.01 or 0.03 mg/kg); for Blood pressure change (Δ mmHg): femoral artery; for Separation ratio (percent increase of vertebral blood flow / that of femoral blood flow): significance vs SKF 24260. Type of series: in vivo, mongrel dog.
Method: Mongrel dogs of both sexes weighing from 12 to 27 kg were anesthetized with sodium pentobarbitol (30 mg/kg i.v.). In all experiments, trachea was cannulated and the animals were artificially ventilated with room air. Blood pressure in cannulated femoral artery was measured by means of a pressure transducer (Nihon Kohden, MPU 0.5). Vertebral and femoral blood flow were measured by a noncannulating electromagnetic flowmeter (Nihon Kohden, MF-25) positioned around the vessels. Recordings were made on an ink-writing polygraph (Nihon Kohden, RM-150 or RM-85). The test compounds were injected at a dose of 0.01 mg/kg into femoral vein.

The subject of a further series is vertebral artery. As to the kind of experiment: Direct vasodilating effect on vertebral artery, constant volume perfusion. Type of series: in vivo, mongrel dog. Conditions: intra-arterial. An excerpt: (§1) Heparin (1000 μ/Kg, i.v.) was used as an anticoagulant. The methods for perfusion of each artery were as following: 1) For the vertebral artery, the arterial blood led from the left common carotid artery was collected by the tygon tubing and perfused by the Sigma-motor pump (Mippleport N.Y. T-8) into the right vertebral artery. 2) For the femoral artery, the arterial blood led from the proximal femoral artery was perfused by the Sigma-motor pump into the distal femoral artery. […] All drugs were given into a rubber tube connected close to the each arterial cannula by a microinjector (Jintan Terumo, NSN-100).

The next series relates to femoral artery. The series can be described thus: Direct vasodilating effect on femoral artery, constant volume perfusion. Conditions: intra-arterial; ±SE; maximum response to papaverine 3000 μg i.a. = 100%. The format is in vivo, mongrel dog.
Excerpt: For the analysis of the selective effect on vasculature by the drugs, direct effect on cerebral (vertebral artery) and peripheral (femoral artery) vascular bed were studied by the method of the constant volume perfusion.
as §1

The next series deals with guinea-pig ileum. As to the kind of experiment: Spasmolytic activity in isolated guinea-pig ileum (Magnus apparatus). Particulars: Cavia porcellus, ±S.E. On the procedure:
Methods: Isolated guinea-pig ileum was suspended in Tyrodes solution by use of Magnus apparatus and the movements of the muscle were recorded in a kymograph by an isotonic lever.

The mark [3] stands for this setting: compounds of the present invention, 25° C.
[4] abbreviates: compounds of the present invention, 25° C, at the given pH, read-out: Solubility.

In brackets after ≈: the same amount, converted by molar mass. Structures can show the parent of a compound that is named as a salt. Where two headings read alike, the source gives them in different places.

Compound `CCOC(=O)C1=C(C)NC(C)=C(C(=O)OCCN(C)Cc2ccccc2)C1c1cccc([N+](=O)[O-])c1` (stereo not drawn) [R5=C2H5O, A=CH2CH2, R3=drawing 10, R4=CH3, 2,6-Dimethyl-4-(3'-nitrophenyl)-1,4-dihydropyridine-3,5-dicarboxylic acid 3-β-(N-benzyl-N-methylamino)ethyl ester 5-ethyl ester] came in with an LD50 in “in vivo” of 15 mg/kg.
On the same count and under the same terms, the result for `CCOC(=O)C1=C(C)NC(C)=C(C(=O)OCCN(C)Cc2ccc(OC)cc2)C1c1cccc([N+](=O)[O-])c1` (stereo not shown) [R5=C2H5O, A=CH2CH2, R3=drawing 12, R4=CH3] reads 10 mg/kg.
Regarding `COc1ccc(CN(C)CCOC(=O)C2=C(C)NC(C)=C(C(=O)OCCN(C)Cc3ccc(OC)cc3)C2c2cccc([N+](=O)[O-])c2)cc1` [Example 16, dihydrochloride], the “pH (of solubility determination)” value in series [1] (setting [3]) worked out at 3.20. The solubility in series [1] (setting [4]) amounted to 25300 µg/mL.
On to `COC(=O)C1=C(C)NC(C)=C(C(=O)OCCN(C)Cc2ccccc2)C1c1ccccc1C(F)(F)F` (stereo not drawn) [Example 24, 2,6-dimethyl-4-(o-trifluoromethyl-phenyl)-1,4-dihydropyridine-3,5-dicarboxylic acid 3-β-(N-benzyl-N-methylamino)ethyl ester 5-methyl ester hydrochloride], for which the “pH (of solubility determination)” value in series [1] (setting [3]) is 3.91. Also, the solubility in series [1] (setting [4]) amounted to 2300 µg/mL. This compound came in with an LD50 in the series “in vivo” of 23.7 mg/kg. In series [2], the “Femoral blood flow (FBF %)” value is reported as 67 ± 10.5%, the “Vertebral blood flow (VBF Δ %)” value is reported as 119 ± 20.4 Δ %, the “Blood pressure change (Δ mmHg)” value was -28 ± 4.9 Δ mmHg and the “Separation ratio (percent increase of vertebral blood flow / that of femoral blood flow)” value worked out at 2.04 ± 0.53.
With `CC(=O)C1=C(C)NC(C)=C(C(=O)OCCN(C)Cc2ccccc2)C1c1cccc([N+](=O)[O-])c1` (stereo not drawn) [R5=CH3, A=CH2CH2, R3=drawing 14, R4=CH3, 3-Acetyl-2,6-dimethyl-4-(3'-nitrophenyl)-1,4-dihydropyridine-5-carboxylic acid 3-β-(N-benzyl-N-methylamino)ethyl ester], the LD50 in “in vivo” is 40 mg/kg.
Regarding `COc1ccc(Cc2nccc3cc(OC)c(OC)cc23)cc1OC` [Papaverine], the “Heart rate (Δbeats/min.±SE)” value is on record as 8±1.5 Δbeats/min with anesthetized dogs (0.1 mg/Kg i.v.), 22±3.5 Δbeats/min in the series with anesthetized dogs (0.3 mg/Kg i.v.) and 44±4.8 Δbeats/min in the series with anesthetized dogs (1.0 mg/Kg i.v.). In addition, the “Mean blood pressure (ΔmmHg±SE)” value is given as -9±1.1 ΔmmHg in the series with anesthetized dogs (0.1 mg/Kg i.v.), -21±2.8 ΔmmHg with anesthetized dogs (0.3 mg/Kg i.v.) and -32±3.5 ΔmmHg in the series with anesthetized dogs (1.0 mg/Kg i.v.). For the same compound, the “Vertebral blood flow (Δ%±SE)” value in the series with anesthetized dogs (0.1 mg/Kg i.v.) is 22±3.4 Δ%; in the series on anesthetized dogs (0.3 mg/Kg i.v.) it was 67±7.1 Δ%; with anesthetized dogs (1.0 mg/Kg i.v.) it was 124±13.8 Δ%. In addition, the “Selectivity ratio (ED50 in femoral artery/ED50 in vertebral artery)” value in the series on vertebral artery (anesthetized dogs) is on record as 0.67. Besides, the “Vasodilation ED50, vertebral artery” value with vertebral artery (±SE, maximum response to papaverine 3000 μg i.a. = 100%) came to 72.8 ± 8.71 µg. Moreover, the “Vasodilation ED50, femoral artery” value in the series with femoral artery came out at 48.8 ± 3.73 µg. In addition, the IC50 in the series with guinea-pig ileum (read-out: Spasmolytic activity, 50% inhibition of contractile response, Acetylchloline 10^-7 g/ml) was found to be 11 µg/mL (≈ 32.4 µM); in the series with guinea-pig ileum (read-out: Spasmolytic activity, 50% inhibition of contractile response, BaCl2 2×10^-4 g/ml), 7.2 µg/mL (≈ 21.2 µM); with guinea-pig ileum (read-out: Spasmolytic activity, 50% inhibition of contractile response, Histamine 10^-7 g/ml), 7 µg/mL (≈ 20.6 µM).
Consider “2,6-dimethyl-4-(2'-nitrophenyl)-1,4-dihydropyridine-3,5-dicarboxylic acid bis[β-(N-benzyl-N-methylaminethyl] ester hydrochloride [Example 9]”, for which the “pH (of solubility determination)” value in series [1] (setting [3]) was determined as 3.16. The solubility in series [1] (compounds of the present invention, 25° C, at the given pH) is on record as 2.74%.
As to `COC(=O)C1=C(C)NC(C)=C(C(=O)OC)C1c1ccccc1C#N` [reference compound], in series [1] (known compounds, 25° C), the “pH (of solubility determination)” value is 5.80. Further, the solubility in series [1] (known compounds, 25° C, at the given pH, read-out: Solubility) amounted to 10 µg/mL (≈ 30.6 µM). For the same compound, the solubility in series [1] (known compounds, pH 4.00, 25° C, read-out: Solubility at pH 4.00) worked out at 1 µg/mL (≈ 3.06 µM). The compound further yielded an LD50 in “in vivo” of 7.4 mg/kg. For the same compound, in series [2], the “Femoral blood flow (FBF %)” value is reported as 109 ± 28.0%, the “Vertebral blood flow (VBF Δ %)” value is listed as 97 ± 16.0 Δ %, the “Blood pressure change (Δ mmHg)” value is -38 ± 6.0 Δ mmHg and the “Separation ratio (percent increase of vertebral blood flow / that of femoral blood flow)” value came to 1.20 ± 0.27.
As for `CCOC(=O)C1=C(C)NC(C)=C(C(=O)OCCN(C)Cc2ccc(OC)cc2)C1c1cccc([N+](=O)[O-])c1` (stereo not drawn) [Example 14, 2,6-dimethyl-4-(3'-nitrophenyl)-1,4-dihydropyridine-3,5-dicarboxylic acid 3-ethyl ester 5-β-(N-methyl-N-p-methoxybenzylamino)ethyl ester], the “pH (of solubility determination)” value in series [1] (setting [3]) is on record as 4.17. In addition, in series [1] (setting [4]), the solubility worked out at 1000 µg/mL (≈ 1910 µM).
Compound `CC1=C(C(=O)OCCCN(C)Cc2ccccc2)C(c2cccc([N+](=O)[O-])c2)C(C(=O)OC(C)C)=C(C)N1` (stereo not shown) [2,6-dimethyl-4-(3'-nitrophenyl)-1,4-dihydropyridine-3,5-dicarboxylic acid 3-isopropylester-5-γ-(N-benzyl-N-methylamino)propyl ester] came in with an LD50 in the series “in vivo” of 10 mg/kg.
Same read-out and setting: with `CC(=O)C1=C(C)NC(C)=C(C(=O)OCCN(C)Cc2ccc(Cl)cc2)C1c1cccc([N+](=O)[O-])c1` (stereo not drawn) [R5=CH3, A=CH2CH2, R3=drawing 15, R4=CH3, 3-Acetyl-2,6-dimethyl-4-(3'-nitrophenyl)-1,4-dihydropyridine-5-carboxylic acid 3-β-(N-p-chlorobenzyl-N-methylamino)ethyl ester] the figure was 45 mg/kg.
Consider `CC1=C(C(=O)OCCN(C)Cc2ccccc2)C(c2ccccc2[N+](=O)[O-])C(C(=O)OC(C)C)=C(C)N1` (stereo not drawn) [Example 4, 2,6-dimethyl-4-(2'-nitrophenyl)-1,4-dihydropyridine-3,5-dicarboxylic acid 3-isopropylester-5-β-(N-benzyl-N-methylamino)ethyl ester], for which, in series [1] (setting [3]), the “pH (of solubility determination)” value amounted to 4.10. Besides, the solubility in series [1] (setting [4]) worked out at 3200 µg/mL (≈ 6300 µM).
On to `CCN(CCOC(=O)C1=C(C)NC(C)=C(C(=O)OC(C)C)C1c1cccc([N+](=O)[O-])c1)Cc1ccccc1` (stereo not drawn) [R5=drawing 11, A=CH2CH2, R3=drawing 10, R4=C2H5, 2,6-Dimethyl-4-(3'-nitrophenyl)-1,4-dihydropyridine-3,5-dicarboxylic acid 3-β-(N-benzyl-N-ethylamino)ethyl ester 5-isopropyl ester], for which, in the series “in vivo”, the median lethal dose (LD50) stood at 12 mg/kg.
On the same count and under the same terms, the result for `CC1=C(C(=O)OCCN(C)Cc2ccccc2)C(c2cccc([N+](=O)[O-])c2)C(C(=O)OC(C)C)=C(C)N1` (stereo not drawn) [R5=drawing 11, A=CH2CH2, R3=drawing 10, R4=CH3, 2,6-Dimethyl-4-(3'-nitrophenyl)-1,4-dihydropyridine-3,5-dicarboxylic acid 3-β-(N-benzyl-N-methylamino)ethyl ester 5-isopropyl ester] reads 15 mg/kg.
For the compound `CC1=C(C(=O)OCCN(C)Cc2ccccc2)C(c2cccc([N+](=O)[O-])c2)C(C(=O)OC(C)C)=C(C)N1` (stereo not drawn) [Example 1, 2,6-dimethyl-4-(3'-nitrophenyl)-1,4-dihydropyridine-3,5-dicarboxylic acid-3-isopropylester-5-β-(N-benzyl-N-methylamino)-ethyl ester hydrochloride], in series [1] (setting [3]), the “pH (of solubility determination)” value came to 4.12. Further, the solubility in series [1] (setting [4]) is 3100 µg/mL.
In turn, `CCOC(=O)C1=C(C)NC(C)=C(C(=O)OCCN(C)Cc2ccc(Cl)cc2)C1c1cccc([N+](=O)[O-])c1` (stereo not shown) [R5=C2H5O, A=CH2CH2, R3=drawing 13, R4=CH3] displayed an LD50 in “in vivo” of 12 mg/kg.
Turning to `CCOC(=O)C1=C(C)NC(C)=C(C(=O)OCCN(C)Cc2ccccc2)C1c1cccc([N+](=O)[O-])c1` (stereo not drawn) [Example 6, 2,6-dimethyl-4-(3'-nitrophenyl)-1,4-dihydropyridine-3,5-dicarboxylic acid 3-ethylester-5-β-(N-benzyl-N-methylamino)ethyl ester], the “pH (of solubility determination)” value in series [1] (setting [3]) is recorded as 4.20. In series [1] (setting [4]), the solubility was 2900 µg/mL (≈ 5880 µM).
In the series “in vivo”, `COC(=O)C1=C(C)NC(C)=C(C(=O)OCCN(C)Cc2ccccc2)C1c1ccccc1[N+](=O)[O-]` (stereo not drawn) [Example 36, 2,6-dimethyl-4-(2'-nitrophenyl)-1,4-dihydropyridine-3.5-dicarboxilic acid 3-methyl ester 5-β-(N-benzyl-N-methylamino) ethyl ester hydrochloride] returned a 50% lethal dose (LD50) of 14 mg/kg. In series [2], the “Femoral blood flow (FBF %)” value came out at 83 ± 14.1%, the “Vertebral blood flow (VBF Δ %)” value is 167 ± 31.7 Δ %, the “Blood pressure change (Δ mmHg)” value is recorded as -26 ± 5.0 Δ mmHg and the “Separation ratio (percent increase of vertebral blood flow / that of femoral blood flow)” value was 2.21 ± 0.56.
